{
  "source": "patent US8470755B1",
  "about": "“Liquid cleaning and disinfecting compositions comprising a zinc inorganic salt” (The Procter & Gamble Company, priority 2012, dated 2013)",
  "type_in_all_cases": "cell-based",
  "key": {"[1]": {"system": "Escherichia Coli (EC) CIP 53.126", "assay": "ASTM E2149 shake flask method, antibacterial log reduction, E. coli", "settings": "log(T0/T1h), 1 hour", "experimental": "(§1) The antibacterial efficacy was tested following the below Shake Flask protocol:\n(§2) • Microbial strains: Staphylococcus aureus (SA) CIP 4.83, Escherichia Coli (EC) CIP 53.126, Pseudomonas Aeruginosa (PA) CIP 82.113 • Culture media: TSA medium-Neutralizing medium (Dey Engley Broth)-Buffered Peptoned water (BPW-F)-Shake flask bottles-Physiological water • Incubator Shake Flask Protocol: ASTM E2149 Shake Flask Method • Inoculum counting: • For each strain, prepare an inoculum at 0.5 Mc Farland (McF). Dilute 1 ml of the inoculum with 9 ml of physiological water. Select 1 ml of the resulting dilution and dilute again with 9 ml of physiological water. Execute 5 dilution steps accordingly so that a 10^−5 dilution is obtained. • Recover 100 microliter of the 10^−5 dilution and inoculate 2 petri dishes. • Add 20 ml of TSA medium. • Incubate at 32+/−0.5° C. during 24 hours • Negative control: • Put 5 ml of SA, EC or PA inoculums into a shake flask. Add 45 ml of pure BPW-F solution. • Dilute twice in neutralizing medium: Recover 1 ml of the pure solution and add 9 ml of the neutralizing medium (=10^−1 and 10^−2 dilution). • Wait 5 minutes and put 100 microliter of the pure solution and the 10^−2 dilution into 2 petri dishes, add 20 ml of TSA medium (T0). • Do the same operation after 1 hour (T1h). • Incubate at 32+/−0.5° C. during 24 hours • Sample testing: • Prepare a solution at a specified concentration (see data tables for actual concentrations as 100% active—final volume 50 ml). For example, for a 50% (V/V), dilute 25 ml of product with 20 ml of BPW-F and 5 ml of the inoculums (SA, EC or PA) at 0.5 McF. • Dilute twice in neutralizing medium: Recover 1 ml of the pure solution and add 9 ml of the neutralizing medium (=10^−1 and 10^−2 dilution). • Wait 5 minutes and put 100 microliter of the pure solution and the 10^−2 dilution into 2 petri dishes, add 20 ml of TSA medium (T0). • Do the same operation after 1 hour (T1h). • Incubate at 32+/−0.5° C. during 24 hours • Calculation of log reduction: • The log reduction is calculated as log(T0/T1h)"}, "[2]": {"system": "Pseudomonas Aeruginosa (PA) CIP 82.113", "assay": "ASTM E2149 shake flask method, antibacterial log reduction, Ps. aeruginosa", "settings": "Ps Aeroginosa; tested active concentration 10%; log(T0/T1h), 1 hour", "experimental": "as §1, §2"}, "[3]": {"system": "Staphylococcus aureus (SA) CIP 4.83", "assay": "ASTM E2149 shake flask method, antibacterial log reduction, St. aureus", "settings": "log(T0/T1h), 1 hour", "experimental": "as §1, §2"}, "[4]": {"settings": "tested active concentration 0.1%"}, "[5]": {"settings": "St. Aureus, tested active concentration 0.1%"}},
  "data": [
    {"compound": "O=C([O-])[O-].[Zn+2]", "note": "[Zn2+, zinc carbonate]", "values": [
      {"measurement": "Log reduction (tested active concentration)", "setting": "[1]; [4]", "value": "0.17 (0.1%)"},
      {"measurement": "Log reduction (tested active concentration)", "setting": "[2]", "value": "0.27 (10%)"},
      {"measurement": "Log reduction (tested active concentration)", "setting": "[3]; [5]", "value": "0.18 (0.1%)"}
    ]},
    {"compound": "CCCCCCCCCCCC(=O)NCCC[N+](C)(C)[O-]", "note": "[CAP AO, cocoamidopropyl dimethyl amine oxide]", "values": [
      {"measurement": "Log reduction (tested active concentration)", "setting": "[1]; tested active concentration 1%", "value": "0.37 (1%)"},
      {"measurement": "Log reduction (tested active concentration)", "setting": "[2]", "value": "1.3 (10%)"},
      {"measurement": "Log reduction (tested active concentration)", "setting": "[3]; St Aureus, tested active concentration 1%", "value": "0.88 (1%)"}
    ]},
    {"compound": "methyl branched dimethyl amine oxide [Shell type 1 Branched AO ( N terminal)]", "values": [
      {"measurement": "Log reduction (tested active concentration)", "setting": "[2]", "value": "3.98 (10%)"},
      {"measurement": "Log reduction (tested active concentration)", "setting": "[3]; [5]", "value": "4.06 (0.1%)"}
    ]},
    {"compound": "linear C12-14 alkyl dimethyl amine oxide [Linear AO]", "values": [
      {"measurement": "Log reduction (tested active concentration)", "setting": "[1]; [4]", "value": "0.41 (0.1%)"},
      {"measurement": "Log reduction (tested active concentration)", "setting": "[2]", "value": "2.10 (10%)"},
      {"measurement": "Log reduction (tested active concentration)", "setting": "[3]; [5]", "value": "0.73 (0.1%)"}
    ]}
  ]
}
